The values below are quoted from earlier work in publication PMC10218941, “Design, Synthesis, Antiproliferative Actions, and DFT Studies of New Bis–Pyrazoline Derivatives as Dual EGFR/BRAF^V600E Inhibitors” (International Journal of Molecular Sciences, 2023).

Molecules are shown by their SMILES. Values joined by “and” are separate entries in the source; they are usually repeats but may differ in a detail not shown here. Equal values may be shown once.

One may read the IC50 as the concentration needed to halve the response being measured.

The target in one series is T1, EGFR (Homo sapiens, UniProt P00533).
T1 construct: 645–1186); His6 (N); made in house; host or cells: Sf-9 insect cells (baculovirus; pBlueBacHis2B / pFASTBacHTc
Details: method as in PMID 35424523. To be noted: cited from earlier work.

The test system of a further series is BRAF^V600E. Details: method as in PMID 35424523. Conditions: cited from earlier work.

T1 sequence (P00533 669-1210): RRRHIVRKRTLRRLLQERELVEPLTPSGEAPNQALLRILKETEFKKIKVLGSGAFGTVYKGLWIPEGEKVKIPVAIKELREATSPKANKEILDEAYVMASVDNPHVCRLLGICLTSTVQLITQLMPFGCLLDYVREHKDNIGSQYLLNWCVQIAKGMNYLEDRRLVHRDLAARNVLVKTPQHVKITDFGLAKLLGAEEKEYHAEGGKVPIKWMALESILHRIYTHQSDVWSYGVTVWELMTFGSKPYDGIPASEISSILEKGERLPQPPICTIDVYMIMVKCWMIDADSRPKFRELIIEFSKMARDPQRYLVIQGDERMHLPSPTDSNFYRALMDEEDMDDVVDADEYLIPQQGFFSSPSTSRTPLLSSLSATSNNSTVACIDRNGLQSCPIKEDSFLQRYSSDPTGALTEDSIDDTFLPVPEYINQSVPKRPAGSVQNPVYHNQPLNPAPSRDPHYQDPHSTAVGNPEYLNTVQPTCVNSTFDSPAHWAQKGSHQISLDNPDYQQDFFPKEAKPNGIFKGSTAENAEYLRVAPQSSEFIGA

As for `Cc1c(NC2=NC(=O)CS2)c(=O)n(-c2ccccc2)n1C` [I], the IC50 on EGFR was 22 nM and 20 nM; in the series on BRAF^V600E, 2030 nM.
